One molecule from patent EP4121415B1, “INHIBITORS OF CYTOKININ OXIDASE DERIVED FROM 1-[2-(HYDROXYALKYL)PHENYL]-3-YLUREA, USE THEREOF AND PREPARATIONS CONTAINING THESE DERIVATIVES” (Univerzita Palackého v Olomouci, priority 2020, dated 2021) can be followed below.

The structures appear in SMILES notation. pIC50: −log10 of the molar value. Where “and” joins values, the source holds several entries; their conditions need not be identical. Equal entries are not always repeated.

In experiment [1] the test system is segments of wheat leaves (Triticum aestivum cv. Hereward). Kind of experiment: wheat leaf senescence assay performed in the dark (chlorophyll retention in detached leaf segments). Type of experiment: in vivo. The settings on record: Triticum aestivum, foliar, 96 h, read-out: (% of chlorophyll above control). The method, then:
Seeds of winter wheat (Triticum aestivum cv. Hereward) was washed under running water for 4 hours and then sown in vermiculite saturated with Knop's nutrient solution. The trays with seeds were placed in an air-conditioned growth chamber with a 16/8 hour light regime (light intensity 50 µmol.m^-2.s^-1) and a temperature of 15 °C. After 7 days, the seedlings had developed the first […] and the second leaf began to grow. Top sections approximately 4 cm long were excised from the first leaves of 4 plants and their combined weight was adjusted to exactly 100 mg. The basal ends of these 4 leaf segments were placed in the wells of microtiter polystyrene plates containing solution (150 µL) of the tested derivative. The plates were placed in a plastic box with filter paper, which was saturated with water (to maintain the maximum humidity). After 96 hours of incubation in the dark at 25 °C, the leaf segments were removed and the chlorophyll was extracted to 5 mL of 80% ethanol by heating the leaf segments in ethanol at 80 °C for 40 min. The sample volume was then adjusted to 5 mL by adding 80% ethanol. The absorbance of the extracts was measured at 665 nm. Chlorophyll extracts from leaf segments incubated in deionized water (so-called yellow control) were also measured as controls. Freshly cut leaves (100 mg) were used as a green control, from which chlorophyll was extracted and measured in the same manner. The calculated values are the average of 5 replicates and the whole experiment was repeated two times. The tested compounds were dissolved in dimethyl sulfoxide (DMSO) to a concentration 10^-2 M. This stock solution was further diluted with water to a concentration of 10 micromolar. At this concentration, the substances were tested.

Experiment [2] deals with Arabidopsis thaliana (ecotype Col-0). Kind of experiment: abiotic stress (saline, osmotic) assay on Arabidopsis seedlings. The experiment is classed as in vivo. To be noted: 10 nM, 6 days of growth after transfer. How it is done: Compound 61 was tested for its ability to alleviate the effects of abiotic stress, represented by application of 100 mM NaCl (saline stress) or 100 mM mannitol (osmotic stress), respectively. The assay was performed as described in (Ugena et al., 2018, Front Plant Sci. 9, 1327. doi: 10.3389/fpls.2018.01327). Arabidopsis thaliana (ecotype Col-0) seeds were germinated on full MS growth medium for three days without presence of any treatment. After that they were transferred to the same medium containing 10 nM concertation of compound 61 in the absence or presence of the abiotic stress factor. Dimethyl sulfoxide (DMSO) was used as a solvent control (mock) in all variants. The dynamics of the shoot biomass formation and the relative growth rate were evaluated by recording the green area twice a day during the 6 days of growth after the seedling transfer. The abiotic stress conditions caused severe penalty in both traits evaluated. The salt and mannitol stress reduced the shoot yield by 63 % and 42 %, respectively, whereas presence of the compound 61 turned back the penalty by almost 20 % (Table 3 and Fig. 1). […] 11 % (Table 3).

In experiment [3] the test system is Arabidopsis thaliana. Kind of experiment: foliar application, lifespan of Arabidopsis under optimal conditions. Type of experiment: in vivo. To be noted: sprayed with 0.1 µM aqueous solution in phase of 4 true leaves, n = 25, compared to control plants. The method, then: Young Arabidopsis thaliana plants grown in small pots in a soil were sprayed with a 0.1 µM aqueous solution of substance 61 in phase of 4 true leaves (within 14-20 days after sowing).
Treated plants (n = 25) and control plants (n = 25) were further grown under optimal conditions until their natural death as in Example 25. […] The treated plants remained more green for a longer period of time (delayed senescence), which allowed them to accumulate more products of photosynthesis, which in turn may have contributed to a higher yield of these plants.

Experiment [4] concerns the target T1, maize enzyme cytokinin oxidase/dehydrogenase 1 (ZmCKX1) (Zea mays, UniProt Q9T0N8).
T1 construct: made in house; host or cells: Yarrowia lipolytica
Kind of experiment: ZmCKX1 inhibition, PMS/MTT assay. The experiment is classed as biochemical. How it is done: The IC50 (concentration of a substance that causes 50% inhibition of the enzyme activity) was measured by PMS/MTT assay [phenazine methosulphate/3-(4,5-dimethylthiazol-2-yl)-2,5-diphenyltetrazolium bromide]. The assay was performed in 96-well microtiter plates. Each well contained a reaction mixture with a final concentration of: 0.1 M KH2PO4, pH 7.4, 1 mM MTT, 0.2 mM PMS, tested substance in a concentration range of 0.1 nM - 1 µM and 10 µM N^6-isopentenyladenine (iP) as a substrate. To this reaction mixture 100 µL of medium containing the active enzyme ZmCKX1 was added. The enzyme was produced by the yeast Yarrowia lipolytica and isolated according to the protocol (Kopečný D. et al., 2005, […] 87:1011-1022). The plates were incubated for 30 min at 37 °C and the enzymatic reaction was stopped by the addition of 25 µL of 35% acetic acid. Then, the absorbance at 578 nm was measured on a spectrophotometer, and the absorbance of the sample without the substrate was substracted as a reference value. The IC50 value was determined from the concentration-dependent curves in GraphPad Prism software. The values shown in Table 1 are the average of at least two measurements each performed in three repetitions. […] This also applies to 3,5-DCl-Ph-U derivatives.

The next experiment has as its system winter rapeseed. Kind of experiment: field trial, foliar application, seed yield of winter rapeseed. Type of experiment: in vivo. To be noted: 5 µM in 300 L per hectare; for weight of one thousand seeds: control 5.51 g; for seed yield compared to the control (100 %): foliar. The method, then:
In 2017, the effect of foliar application of compound 61 (5 µM concentration in a volume of 300 L per hectare) on seed yield of winter rapeseed in field conditions was determined. The field trials were performed according to "good agricultural practice". Substance 61 was applied to plants in two different growth phases - BBCH 30 and BBCH 33-35. […] The weight of one thousand seeds in the treated plants was 5.7 g (BBCH 30) and 5.8 g (BBCH 33-35). This phenomenon contributed to the increase in total seed yield.

In experiment [5] the test system is Arabidopsis thaliana. Kind of experiment: foliar application, seed yield in Arabidopsis. The experiment is classed as in vivo. The method, then:
In our experiment, young Arabidopsis thaliana plants were grown in small pots in soil and they were sprayed with a 0.1 µM compound 61 (aq solution) in phase of 4 true leaves (about 14-20 days after sowing). Treated plants (n = 25) and control plants (n = 25) were further grown under optimal conditions until their natural death. Subsequently, seeds were harvested from all plants and the yield was evaluated. […] This means a 19 % increase in total seed yield.
This means an increase in total seed yield of 23 %.

[6] abbreviates: sprayed with 0.1 µM aq solution in phase of 4 true leaves, n = 25, optimal conditions.

For orientation: pIC50 means the IC50 on a negative log10 scale, so that one unit is a factor of ten.

T1 sequence (Q9T0N8 19-534): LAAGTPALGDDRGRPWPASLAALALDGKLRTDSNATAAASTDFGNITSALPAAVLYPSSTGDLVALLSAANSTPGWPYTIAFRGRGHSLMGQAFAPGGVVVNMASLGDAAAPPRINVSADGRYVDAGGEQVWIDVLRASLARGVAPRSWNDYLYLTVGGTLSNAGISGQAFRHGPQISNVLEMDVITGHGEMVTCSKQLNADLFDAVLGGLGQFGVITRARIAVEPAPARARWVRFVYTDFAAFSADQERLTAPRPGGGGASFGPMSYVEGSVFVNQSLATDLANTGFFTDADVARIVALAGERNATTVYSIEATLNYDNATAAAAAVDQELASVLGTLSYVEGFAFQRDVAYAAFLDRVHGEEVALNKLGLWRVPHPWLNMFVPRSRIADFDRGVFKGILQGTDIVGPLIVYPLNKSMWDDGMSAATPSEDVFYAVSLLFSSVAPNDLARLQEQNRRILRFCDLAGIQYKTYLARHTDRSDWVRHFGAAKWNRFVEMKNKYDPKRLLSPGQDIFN

As for `O=C(Nc1cccc(OC(F)(F)F)c1)Nc1ccccc1CCO` [Compound 61, 1-[2-(2-Hydroxyethyl)phenyl]-3-(3-trifluoromethoxyphenyl)urea], the activation at 10 µM in experiment [1] was 24%. In addition, the “shoot yield: penalty caused by stress turned back” value in experiment [2] (100 mM NaCl (saline stress) or 100 mM mannitol (osmotic stress)) is around 20%. Moreover, the “average relative growth rate: effect of the stressors reduced” value in experiment [2] (100 mM NaCl or 100 mM mannitol) is reported as around 11%. The “longer viability (average)” value with Arabidopsis thaliana [3] is reported as 10 days. In experiment [4], this molecule gave a pIC50 of 6.74. Also, the “weight of one thousand seeds” value came out at 5.7 g with winter rapeseed (applied at BBCH 30) and 5.8 g in the experiment with winter rapeseed (applied at BBCH 33-35). Moreover, the “seed yield compared to the control (100 %)” value with winter rapeseed (applied at BBCH 30, 2017) stood at 105.7%; with winter rapeseed (applied at BBCH 33-35, 2017) it was 107.5%. Further, in the experiment on Arabidopsis thaliana [5] (0.1 µM spray, compared to control plants), the “increase in total seed yield” value is 19% and 23%. In addition, in the experiment on Arabidopsis thaliana [5] (setting [6]), the “seeds per silique (average)” value was 52 (± 4) and 49 (± 6). In addition, the “total seed yield per plant” value in the experiment on Arabidopsis thaliana [5] (setting [6]) was 155 (± 19) mg and 138 (± 15) mg.
